{"source": "patent US12221481B2", "about": "“CD19 binding molecules and uses thereof” (Novartis AG, priority 2019, dated 2025)", "key": {"Karpas422 target cells": {"test_system": "Karpas422 target cells", "assay": "Re-challenge RTCC assay, Karpas 422", "assay_type": "cell-based, human", "details": "last re-challenge", "procedure": "OCI-LY-19 and Karpas422 target cells stably expressing firefly luciferase were plated in a Costar 6 well plate in T Cell Media (TCM). PBMCs previously isolated and cryopreserved from 2 Leukopak donors were thawed and Pan T cells were isolated (as described earlier). […] The plates were incubated for 4 days for OCI-LY-19 and 5 days for Karpas 422 cells. At the end of incubation, the killing of target cells was determined using the luminescence signal. The absolute T cell counts from each antibody treated condition was also determined. For the next round of rechallenge, it was ensured that the killing of target cells was equivalent across various antibody conditions. […] Additionally, a dose titration RTCC at a E:T of 1:1 and a concentration range of 2 nM-0.000001 nM was set-up using T cells from the different antibody treated conditions with a 4 day incubation used for each cell line. The killing of target cells was determined using the luminescence signal to generate dose response curves. At the end of the challenge, the above process was repeated once more for Karpas 422 and twice more for OCI-LY-19 cells."}, "T cells": {"test_system": "T cells", "assay": "TBM and BBM mediated T cell proliferation (Example 20)", "assay_type": "cell-based, human", "details": "in the presence of OCI-LY-19 and Toledo cells", "procedure": "Briefly, OCI-LY-19, Karpas422, and Toledo target cells stably expressing firefly luciferase were plated in a 96 well plate in T Cell Media (TCM) (RPMI-1640, ThermoFisher Scientific, Cat #11875-085), 10% FBS (Seradigm, Cat #1500-500), 1% L-Glutamine (Thermo Fisher Scientific, Cat #25830-081), 1% Non Essential Amino Acids (Thermo Fisher Scientific, Cat #11140-050), 1% Pen/Strep (Thermo Fisher Scientific, Cat #15070063), 1% HEPES (Thermo Fisher Scientific, Cat #15630080), Sodium Pyruvate (Thermo Fisher Scientific, Cat #11360-070), 0.1% Beta-mercaptoethanol (Thermo Fisher Scientific, Cat #21985-023)]. PBMCs previously isolated and cryopreserved from 2 Leukopak donors were thawed and Pan T cells were isolated (as described earlier). Isolated T cells were labelled with 5 μM Cell Trace Violet (CTV) (Thermo Fisher Scientific, Cat #C34557) following the manufacturer's protocol and were co-cultured with target cells at an E:T ratio of 1:3. A dilution series of CD3med TSP1, CD3hi TSP1, CD3hi BSP1, CD3hi TSP1C, and blinatumomab ranging from 2.5 nM-0.0006 nM was added to cells and the plates were incubated in a 5% CO2, 37° C. incubator for 96 hrs. […]"}}, "data": [{"substance": "blinatumomab: bispecific T cell engager, or BiTE, that binds to both CD19 and CD3 but lacks an Fc domain [reference compound]", "values": [{"measurement": "maximum lysis", "setting": "Karpas422 target cells", "value": "higher maximum lysis than CD3hi TSP1"}, {"measurement": "T cell proliferation, potency compared between constructs", "setting": "T cells", "value": "most potent T cell proliferation"}]}]}
